In patent publication US20240182470A1, “KRASG12C MUTANT PROTEIN INHIBITOR, PREARATION AND USE THEREOF” (YA THERAPEUTICS INC, priority 2021, published 2024):

Test system: H358 (KRAS G12C mutant) cells
Assay: Tumor cell proliferation inhibition assay (Cell Titer-Glo, 72 h)
Assay type: cell-based
Conditions: inhibition of tumor cell proliferation, 72 hours with compound, 10% fetal bovine serum; read-out: NCI-H538 IC50(nm)
Experimental: The H358 (KRAS G^12C mutant) cells were digested, centrifuged and resuspended, and the cell density was measured with a Scepter automatic cell counter. The cells were diluted to a solution containing 44,000 cells per milliliter, and the density-adjusted cell solution was 90 microliters per well. into a 96-well culture plate. The 96-well plate was placed in a 37° C., 5% CO2 incubator. After the cells were cultured for 24 hours, different concentrations of the compounds to be tested were added. The cells were incubated with the compounds for 72 hours in the presence of 10% fetal bovine serum. Glo Luminescent Cell Viability Assay Kit (see manufacturer's instructions for details) was used to measure ATP content to assess cell growth inhibition. Briefly, 30 μl of Cell Titer-Glo reagent was added to each well, and the plate was shaken for 10 minutes to induce cell lysis. Fluoroskan
Ascent FL (Thermo) assay was used to record the fluorescent signal, and the maximum signal value was obtained from cells treated with dimethyl sulfoxide for 72 hours. The minimum signal value was obtained from the medium alone (the number of cells was zero), and the % inhibition rate=(the maximum signal value compound signal value)/(the maximum signal value—the minimum signal value×100%, and the data were processed using Graphpadprism 5 software. By sigmoid Dose-response curve fitting to calculate the IC50 value. “A” means IC50≤50 nM; “B” means 50<IC50≤500 nM; “C” means 500<IC50≤2000 nM; “D” means 2000 nM<IC50

| Substance | IC50 [nM] |
| --- | --- |
| 6-Chloro-7-(3-hydroxy-8-fluoronaphthyl)-8-fluoro-4-(((S)-4-(2-fluoroacryloyl)-3-carbonitrileethylpiperazine)-1-yl)-2-(((S)-2,2-difluorotetrahydro-1H-pyrincycline-7a(5H)-yl)methoxy)quinazoline [Compound 77] | ≤ 50 |
| 6-Chloro-7-(3-hydroxy-8-fluoronaphthyl)-8-fluoro-4-(((S)-4-acryloyl-3-carbonitrileethylpiperazine)-1-yl)-2-(((S)-2,2-difluorotetrahydro-1H-pyrinyl-7a(5H)-yl)methoxy)quinazoline [Compound 76] | ≤ 50 |
| 6-Chloro-7-(8-fluoronaphthyl)-8-fluoro-4-(((R)-4-acryloyl-2-methylpiperazine)-1-yl)-2-(((2R,7aS)-2-fluorotetrahydro-1H-pyrincycline-7a(5H)-yl)methoxy)quinazoline [Compound 37] | ≤ 50 |
| 6-Chloro-7-(8-fluoronaphthyl)-8-fluoro-4-(((S)-4-acryloyl-3-carbonitrileethylpiperazine)-2-(((S)-2,2- difluorotetrahydro-1H-pyrincyclo-7a(5H)-yl)methoxy)quinazoline [Compound 75] | ≤ 50 |
| 6-Chloro-7-(8-methylnaphthyl)-8-fluoro-4-(((R)-4-acryloyl-2-methylpiperazine)-1-yl)-2-(((2R,7aS)-2-fluorotetrahydro-1H-pyrinyl-7a(5H)-yl)methoxy)quinazoline [Compound 73] | ≤ 50 |
| 6-Chloro-7-(8-methylnaphthyl)-8-fluoro-4-(((R)-4-acryloyl-2-methylpiperazine)-1-yl)-2-((((S))-2,2-Difluorotetrahydro-1H-pyrincycline-7a(5H)-yl)methoxy)quinazoline [Compound 74] | ≤ 50 |
| 6-Chloro-74(3-hydroxy-8-fluoronaphthyl)-8-fluoro-4-(((S)-4-(2-fluoroacryloyl)-3-carbonitrileethylpiperazine)-1-yl)-2-(((2R,7aS)-2-fluorotetrahydro-1H-pyrincycline-7a(5H)-yl)methoxy)quinazoline [Compound 43] | ≤ 50 |
| 7-(2-Fluoro-6-hydroxyphenyl)-6-fluoro-4-(((S)-4-(2-fluoroacryloyl)-3-carbonitrileethylpiperazine)-1-yl)-2-(((S)-1-(methyl-d3)pyrrolidin-2-yl)methoxy)pyridine[2,3-d]lopyrimidine [Compound 11] | > 2000 |
| 7-(3-Hydroxy-8-fluoronaphthyl)-8-fluoro-4-(((R)-4-acryloyl-2-methylpiperazine)-1-yl)-2-(((S)-2,2-difluorotetrahydro-1H-pyrincycline-7a(5H)-yl)methoxy)quinazoline [Compound 70] | ≤ 50 |
| 7-(3-Hydroxy-8-fluoronaphthyl)-8-fluoro-4-(((S)-4-(2-fluoroacryloyl)-3-carbonitrileethylpiperazine)-2-((((S)-2,2-Difluorotetrahydro-1H-pyrincycline-7a(5H)-yl)methoxy)quinazoline [Compound 65] | ≤ 50 |
| 7-(3-Hydroxy-8-fluoronaphthyl)-8-fluoro-4-(((S)-4-acryloyl-3-carbonitrileethylpiperazine)-2-(((S)-2,2-difluorotetrahydro-1H-pyrincyclo-7a(5H)-yl)methoxy)quinazoline [Compound 64] | ≤ 50 |
| 7-(8-Chloronaphthalene)-4-(((R)-4-Acryloyl-2-methylpiperazine)-1-yl)-2-(((1-(pyrrolidin-1-yl)methancycloprop an-1-yl)methoxy)pyridine[2,3-d]lopyrimidine [Compound 14] | ≤ 50 |
| 7-(8-Chloronaphthalene)-4-(((R)-4-Acryloyl-2-methylpiperazine)-1-yl)-24(1-(N,N-dimethylamino)) methylcyclopropan-1-yl)methoxy)pyridine[2,3-d]lopyrimidine [Compound 23] | ≤ 50 |
| 7-(8-Chloronaphthalene)-4-(((R)-4-Acryloyl-3-carbonitrileethylpiperazine)-1-yl)-2-(((1-(pyrrolidin-1-yl)methylcyclopropan-1-yl)methoxy)pyridine[2,3-d]lopyrimidine [Compound 16] | ≤ 50 |
| 7-(8-Chloronaphthalene)-4-(((R)-4-Acryloyl-3-carbonitrileethylpiperazine)-1-yl)-24(1-(N,N-dimethylaminyl)methylcyclopropan-1-yl)methoxy)pyridine[2,3-d]lopyrimidine [Compound 20] | ≤ 50 |
| 7-(8-Fluoronaphthalene)-4-(((R)-4-Acryloyl-2-methylpiperazine)-1-yl)-2-(((1-(pyrrolidin-1-yl)methyl cyclopropan-1-yl)methoxy)pyridine[2,3-d]lopyrimidine [Compound 13] | ≤ 50 |
| 7-(8-Fluoronaphthalene)-4-(((R)-4-Acryloyl-2-methylpiperazine)-1-yl)-24(1-(N,N-dimethylamino)) methylcyclopropan-1-yl)methoxy)pyridine[2,3-d]lopyrimidine [Compound 24] | ≤ 50 |
| 7-(8-Fluoronaphthalene)-4-(((R)-4-Acryloyl-3-carbonitrileethylpiperazine)-1-y1)-2-(((1-(pyrrolidin-1-yl)methylcyclopropan-1-yl)methoxy)pyridine[2,3-d]lopyrimidine [Compound 15] | ≤ 50 |
| 7-(8-Fluoronaphthalene)-4-(((R)-4-Acryloyl-3-carbonitrileethylpiperazine)-1-yl)-24(1-(N,N-dimethylamineyl)methylcyclopropan-1-yl)methoxy)pyridine[2,3-d]lopyrimidine [Compound 21] | ≤ 50 |
| 7-(8-Fluoronaphthyl)-6-fluoro-4-(8-(2-fluoroacryloyl)-3,8-diazabicyclo[3.2.1]octan-3-yl)-2-(((2R,7aS)-2-fluorotetrahydro-1H-pyrinyl-7a(5H)-yl)methoxy)pyridine[2,3-d]lopyrimidine [Compound 31] | ≤ 50 |
| 7-(8-Fluoronaphthyl)-6-fluoro-4-(((R)-4-acryloyl-2-methylpiperazine)-1-yl)-2-(((S)-2,2-difluorotetrahydro-1H-pyrincycl-7a(5H)-yl)methoxy)pyridine[2,3-d]lopyrimidine [Compound 79] | ≤ 50 |
| 7-(8-Fluoronaphthyl)-6-fluoro-4-(((S)-4-(2-acryloyl)-3-carbonitrileethylpiperazine)-1-yl)-2-((((S)-1-(methyl-d3)pyrrolidin-2-yl)methoxy)pyridine[2,3-d]lopyrimidine [Compound 9] | ≤ 50 |
| 7-(8-Fluoronaphthyl)-8-fluoro-4-(((R)-4-acryloyl-2-methylpiperazine)-1-yl)-2-(((2R,7aS)-2-fluorotetrahydro-1H-pyrincyclo-7a(5H)-yl)methoxy)quinazoline [Compound 69] | ≤ 50 |
| 7-(8-Fluoronaphthyl)-8-fluoro-4-(((S)-4-(2-fluoro acryloyl)-3-c arbonitrileethylpiperazine)-1-yl)-2-((tetrakis Hydrogen-1H-pyrinyl-7a(5H)-yl)methoxy)quinazoline [Compound 88] | ≤ 50 |
| 7-(8-Fluoronaphthyl)-8-fluoro-4-(((S)-4-acryloyl-3-carbonitrileethylpiperazine)-1-yl)-2-(((S)-2,2-Difluorotetrahydro-1H-pyrinyl-7a(5H)-yl)methoxy)quinazoline [Compound 63] | ≤ 50 |
